Measurements reported in ChEMBL document CHEMBL3751705, “Synthesis and antituberculosis activity of indole-pyridine derived hydrazides, hydrazide-hydrazones, and thiosemicarbazones” (Bioorg Med Chem Lett, 2016).
≈ marks a conversion by molar mass, not a printed value.

tested on: Mycobacterium tuberculosis; assay: Antituberculosis activity against isoniazid-resistant Mycobacterium tuberculosis CN-40 by microdilution method; type: functional

`O=C(NNCc1c[nH]c2ccccc12)c1ccncc1` and `O=C(N/N=C\c1c[nH]c2ccccc12)c1ccncc1` are the same in MIC: 10 µg/mL (≈ 37.6 µM) for the first, 10 µg/mL (≈ 37.8 µM) for the second.

`CCOC(=O)c1[nH]c2ccc(Cl)cc2c1/C=N\NC(=O)c1ccncc1` and `CCOC(=O)c1[nH]c2ccc(C)cc2c1/C=N\NC(=O)c1ccncc1` are the same in MIC: 2 µg/mL (≈ 5.39 µM) for the first, 2 µg/mL (≈ 5.71 µM) for the second.

`CCOC(=O)c1[nH]c2ccc(C)cc2c1CNNC(=O)c1ccncc1` and `CCOC(=O)c1[nH]c2ccc(Cl)cc2c1CNNC(=O)c1ccncc1` are the same in MIC: 10 µg/mL (≈ 28.4 µM) for the first, 10 µg/mL (≈ 26.8 µM) for the second.

`NNC(=O)c1ccc[n+]([O-])c1` and `NNC(=O)c1cc[n+]([O-])cc1` cannot be ordered by MIC: over 20 µg/mL for the first, over 20 µg/mL for the second.

First: CC(=O)n1cc(NNC(=O)c2ccncc2)c2ccccc21
Second: CC(=O)n1cc(NNC(=O)c2cc[n+]([O-])cc2)c2ccccc21
The MIC of the first is 5-fold lower: 2 µg/mL (≈ 6.8 µM) for the first, 10 µg/mL (≈ 32.2 µM) for the second.

Going from `NNC(=O)c1ccncc1` [ISONIAZID] to `NNC(=O)c1cccnc1` [NICOTINIC ACID HYDRAZIDE], the MIC rises from 20 µg/mL (≈ 146 µM) to over 20 µg/mL.

First: CCOC(=O)c1[nH]c2ccccc2c1/C=N\NC(=O)c1ccncc1
Second: CCOC(=O)c1[nH]c2ccccc2c1/C=N\NC(=O)c1cc[n+]([O-])cc1
The MIC of the first is 5-fold lower: 2 µg/mL (≈ 5.95 µM) for the first, 10 µg/mL (≈ 28.4 µM) for the second.

Going from `CCOC(=O)c1[nH]c2ccc(C)cc2c1/C=N/NC(N)=S` to `Cc1ccc2[nH]c(C(=O)O)c(/C=N\NC(=O)c3ccncc3)c2c1`, the MIC rises from 2 µg/mL (≈ 6.57 µM) to 4 µg/mL (≈ 12.4 µM) (2-fold).

`O=C(N/N=C\c1c[nH]c2ccccc12)c1cc[n+]([O-])cc1` and `CCOC(=O)c1[nH]c2ccccc2c1CNNC(=O)c1cc[n+]([O-])cc1` are the same in MIC: 10 µg/mL (≈ 35.7 µM) for the first, 10 µg/mL (≈ 28.2 µM) for the second.

`CCOC(=O)c1[nH]c2ccccc2c1CNNC(=O)c1ccncc1` and `CC(=O)n1cc(NNC(=O)c2ccc[n+]([O-])c2)c2ccccc21` are the same in MIC: 10 µg/mL (≈ 29.6 µM) for the first, 10 µg/mL (≈ 32.2 µM) for the second.
